{"source": "patent US20170333389A1", "about": "“Method of Ameliorating Clotting Pathologies and Related Materials and Methods” (The Ohio State University, priority 2012, published 2017)", "origin": "cited, not measured here", "key": {"platelet aggregation": {"test_system": "platelet aggregation", "conditions": "low-dose aspirin (81 mg) treated healthy volunteers"}, "[1]": {"conditions": "patients who have had a TIA or stroke"}}}
{"smiles": "CC(=O)Oc1ccccc1C(=O)O", "note": "[aspirin]", "values": [{"measurement": "platelet function recovery after withdrawal", "setting": "platelet aggregation", "value": "48 to 72", "unit": "h"}, {"measurement": "decrease of relative risk of non-fatal ischemic stroke", "setting": "recurrent stroke; [1]", "value": 19, "unit": "%"}, {"measurement": "decrease of relative risk of recurrent stroke, myocardial infarction, and vascular death", "setting": "recurrent stroke; [1]", "value": 13, "unit": "%"}]}
{"smiles": "CC(C)c1c(C(=O)Nc2ccccc2)c(-c2ccccc2)c(-c2ccc(F)cc2)n1CC[C@@H](O)C[C@@H](O)CC(=O)O", "note": "[atorvastatin]", "values": [{"measurement": "decrease of risk of recurrent stroke", "setting": "recurrent stroke; patients with stroke, high dose, over 5 years", "value": "about 2%"}]}
{"smiles": "CC(=O)CC(c1ccccc1)c1c(O)c2ccccc2oc1=O", "note": "(centres unmarked) [warfarin]", "values": [{"measurement": "decrease of relative stroke risk", "setting": "recurrent stroke; patients with stroke due to atrial fibrillation, dose-adjusted", "value": 62, "unit": "%"}]}
